Values of other authors as cited in patent publication US20070248696A1, “Composition and method for enhancing neuromuscular facilitation and cognitive functions” (priority 2006, published 2007).

How the values were obtained:
[1] = in vivo
[2] = relative to vitamin E
[3] = relative to vitamin E; remark: listed apart in the source

Compound	motor performance and coordination in the rotorod and open field tests [1]	more powerful than vitamin E in neutralizing pro-oxidants and free radicals that attack lipids [2]	more potent than vitamin E in reducing oxidation [3]
C[N+](C)(C)CCOP(=O)(O)OP(=O)([O-])OC[C@H]1O[C@@H](n2ccc(N)nc2=O)[C@H](O)[C@@H]1O [CDP-choline, cytidine 5′-diphosphocholine]	improves motor performance and coordination		
O=C(O[C@@H]1Cc2c(O)cc(O)cc2O[C@@H]1c1cc(O)c(O)c(O)c1)c1cc(O)c(O)c(O)c1 [EGCG, (−)-epigallocatechin-3-gallate]		over 200 times	20 times
